pIC50: −log10 of the molar value.
Columns and labels:
SD Rat = test: Oral glucose tolerance (OGTT) in rats; format: in vivo; details: male SD rats, single gavage dose, Canagliflozin 3 mg/kg, test compound 10 mg/kg
Method: The animals will be acclimatized in the animal room for 1 week after arrival at the facility.
The animals are fasted for 16 hours in the metabolic cage and given the drug or solvent (5 mL/kg) according to the table above, followed immediately by 50% glucose solution (2 g/kg, 4 mL/kg).
After 1 hour of glucose administration, the animals resumed feeding, and blood samples were collected at 0 min, 20 min, 40 min, 60 min, 90 min and 120 min for blood glucose measurement; urine at 0 to 24 hours was used for urinary glucose (mg/200 g) and urine volume test, respectively.
All values were expressed as mean values. Statistical analysis was performed using Graphpad Prism 6 single factor analysis of variance Tukey's multiple comparison test. The p-value less than 0.05 was considered statistically significant.

[1] = target: recombinant human dipeptidyl peptidase 4 (rhDPP4) (Homo sapiens, UniProt P27487); test: rhDPP4 inhibitor screening experiment; format: biochemical; details: Gly-Pro-aminofluorescein substrate, 1 hour at room temperature
Sequence of recombinant human dipeptidyl peptidase 4 (rhDPP4) (P27487 whole entry): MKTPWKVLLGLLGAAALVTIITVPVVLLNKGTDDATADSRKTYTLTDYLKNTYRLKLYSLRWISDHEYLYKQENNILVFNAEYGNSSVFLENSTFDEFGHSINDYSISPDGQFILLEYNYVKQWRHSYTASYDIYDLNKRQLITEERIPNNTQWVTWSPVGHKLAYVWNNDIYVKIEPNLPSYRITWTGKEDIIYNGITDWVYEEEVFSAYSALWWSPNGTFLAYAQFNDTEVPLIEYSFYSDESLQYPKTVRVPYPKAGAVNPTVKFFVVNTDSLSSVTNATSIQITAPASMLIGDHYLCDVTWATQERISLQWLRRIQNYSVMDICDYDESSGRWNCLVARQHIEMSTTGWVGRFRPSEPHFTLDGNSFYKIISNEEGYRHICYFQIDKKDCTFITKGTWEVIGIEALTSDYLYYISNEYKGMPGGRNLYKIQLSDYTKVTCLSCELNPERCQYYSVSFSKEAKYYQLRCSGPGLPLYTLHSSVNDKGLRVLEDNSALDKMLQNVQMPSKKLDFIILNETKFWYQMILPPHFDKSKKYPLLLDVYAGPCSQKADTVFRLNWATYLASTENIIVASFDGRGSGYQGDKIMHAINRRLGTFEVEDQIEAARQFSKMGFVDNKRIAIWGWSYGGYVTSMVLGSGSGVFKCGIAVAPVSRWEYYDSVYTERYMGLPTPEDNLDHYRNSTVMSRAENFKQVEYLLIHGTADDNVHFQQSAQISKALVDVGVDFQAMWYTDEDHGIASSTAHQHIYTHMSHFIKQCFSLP
Excerpt: To evaluate the inhibitory activity of compounds against recombinant human dipeptidyl peptidase 4 (rhDPP4) by measuring the half-inhibitory concentration (IC50) values of the compounds. In the experiment, rhDPP4 was used to catalyze the generation of […] from substrate, the substrate was a luminescent precursor […], and the substrate and luciferase were reacted to generate a light signal, the intensity of the light signal was proportional to the enzyme activity.
• 1) The gradient diluted compounds (4-fold fold-dilution, 10 assay concentrations) were transferred 250 nL into a 384-well plate (PerkingElmer-6007299) using a non-contact nano-acoustic pipetting system (ECHO), and dimethyl sulfoxide (DMSO) concentration was 0.5% in the final reaction system. Blank control wells (containing DMSO, substrate and 10 mM Tris-HCl) and positive control wells (containing DMSO, substrate and rhDPP4) were set up. • 2) The pre-dispensed frozen buffer containing luciferase was removed and restored to room temperature, and then the substrate was added to configure a working solution with a substrate concentration of 20 μM. RhDPP4 was prepared as a working solution of 0.2 ng/mL using 10 mM Tris-HCl (pH 8.0) aqueous solution. • 3) 25 μL of working solution containing 20 μM substrate and 25 μL of working solution containing 0.2 ng/mL rhDPP4 were added to a 384-well plate with the addition of the compound, then the mixture was centrifuged for 30 s at 1000 rpm, the plate was sealed with aluminum foil sealing film and incubated for 1 hour at room temperature. • 4) The intensity of the light signal was detected by EnVision, a multifunctional microplate reader. The raw data were used to calculate the inhibition of rhDPP4 activity by the compound. % of inhibition activity=100−(compound well signal value−blank control well signal value)/(positive control well signal value−blank control well signal value)*100. • The percent of inhibition was imported into GraphPad Prism software for data processing to derive the corresponding dose-effect curves and to derive the IC50 values of the tested compounds.

[2] = In vivo DMPK study in mice; details: male C57 mice; for Oral DNAUC (AUCPO/Dose): 10 mg/kg oral; for bioavailability / Cmax / clearance / half-life / Vd: mouse, plasma; for bioavailability: 1 mg/kg intravenous and 10 mg/kg oral, read-out: F % (oral bioavailability); for Cmax / clearance / half-life / Vd: single dose, 1 mg/kg intravenous or 10 mg/kg oral; for clearance: read-out: Cl (clearance rate); for half-life: read-out: T1/2 (half-life) (converted); for Vd: read-out: Vdss (volume of distribution)
Excerpt: Experimental purpose: Male C57 mice were used as test animals to determine blood concentrations of compounds and assess pharmacokinetic behavior after a single dose.
Experimental procedure: Six healthy adult male C57 mice were selected, three of them for the intravenous injection group and three of them for the oral group. The compounds to be tested were mixed with an appropriate amount of intravenous injection group solvent (20% polyethylene glycol-400 (PEG400)/10% polyethylene glycol-15 hydroxystearate (solutol)/70% H2O), the mixture was vortexed and sonicated to obtain 1 mg/mL clarified solution, then the clarified solution was filtered through a microporous membrane and prepared for use; solvent for the oral group was 20% polyethylene glycol-400 (PEG400)/10% polyethylene glycol-15 hydroxystearate (solutol)/70% H2O, and the compounds to be tested were mixed with the solvent, then the mixture was vortexed and sonicated to obtain 1 mg/mL clarified solution. After 1 mg/kg intravenous administration or 10 mg/kg oral administration in mice, whole blood was collected for a certain period of time, then the plasma was prepared to obtain, and the drug concentration was analyzed by LC-MS/MS method, then the pharmacokinetic parameters were calculated using Phoenix WinNonlin software (Pharsight, USA).

| SMILES | OGTT blood glucose levels AUC0-2hr (SD Rat; glucose 2 g/kg) [mmol/L/min] | Urinary glucose level (SD Rat; urine 0 to 24 hours) [mg/200 gBW] | Urine volume (SD Rat; urine 0 to 24 hours) [mL/200 gBW] | pIC50 [1] | Oral DNAUC (AUCPO/Dose) [2] [nM · h/mpk] | bioavailability [2] [%] | Cmax [2] [nM] | clearance [2] [mL/min/kg] | half-life [2] [h] | Vd [2] [L/kg] |
| --- | --- | --- | --- | --- | --- | --- | --- | --- | --- | --- |
| CS[C@H]1O[C@@H](c2ccc(F)c(Cc3ccc(O[C@@H]4CCN([C@H]5CO[C@H](c6cc(F)ccc6F)[C@@H](N)C5)C4)cc3)c2)[C@H](O)[C@@H](O)[C@@H]1O [WX001] | 869 | 0.7 | 10.6 | 7.51 | 194.8 | 21.4 | 308 | 31.4 | 7.39 | 12.2 |
| CS[C@H]1O[C@@H](c2cc(Cc3ccc(O[C@@H]4CCN([C@H]5CO[C@H](c6cc(F)ccc6F)[C@@H](N)C5)C4)cc3)c(F)cc2F)[C@H](O)[C@@H](O)[C@@H]1O [WX006] | – | – | – | 7.57 | 151.3 | 18.7 | 250 | 29.1 | 10.5 | 12 |
